Test results taken from patent US10588317B2, “Isoxazoline-substituted benzamides and analogues as insecticides” (priority 2015, dated 2020).

Assays:
Format in all cases: in vivo
Myzus persicae = Myzus persicae (green peach aphid): feeding/contact activity; details: 144 h, application rate 200 ppm, aphid population of mixed ages, 6 days after infestation, read-out: mortality
Method: (§1) Sunflower leaf discs were placed onto agar in a 24-well microtiter plate and sprayed with aqueous test solutions prepared from 10'000 ppm DMSO stock solutions. After drying, the leaf discs were infested with an aphid population of mixed ages. The samples were assessed for mortality 6 days after infestation.

Tetranychus urticae = Tetranychus urticae (two-spotted spider mite): feeding/contact activity; details: 192 h, application rate 200 ppm, mixed population (mobile stages), 8 days after infestation, read-out: mortality
Method: Bean leaf discs on agar in 24-well microtiter plates were sprayed with aqueous test solutions prepared from 10'000 ppm DMSO stock solutions. After drying the leaf discs were infested with a mite population of mixed ages. The samples were assessed for mortality on mixed population (mobile stages) 8 days after infestation.

Euschistus heros = Euschistus heros (neotropical brown stink bug), sprayed soybean leaves; details: 120 h, application rate 200 ppm, N2 nymphs, 5 days after infestation, read-out: effect in at least one of the two categories (mortality or growth inhibition)
Method: Soybean leaves on agar in 24-well microtiter plates were sprayed with aqueous test solutions prepared from 10'000 ppm DMSO stock solutions. After drying the leaves were infested with N2 nymphs. The samples were assessed for mortality and growth inhibition in comparison to untreated samples 5 days after infestation.
(§2) The following compounds gave an effect of at least 80% in at least one of the two categories (mortality or growth inhibition) at an application rate of 200 ppm: […]

Plutella xylostella = Plutella xylostella (diamond back moth), artificial diet; details: 120 h, application rate 200 ppm, L2 larvae, 5 days after infestation, read-out: effect in at least one of the two categories (mortality or growth inhibition)
Method: (§3) 24-well microtiter plates with artificial diet were treated with aqueous test solutions prepared from 10'000 ppm DMSO stock solutions by pipetting. After drying, the plates were infested with L2 larvae (10 to 15 per well). The samples were assessed for mortality and growth inhibition in comparison to untreated samples 5 days after infestation.
as §2

Thrips tabaci = Thrips tabaci (onion thrips): feeding/contact activity; details: 144 h, application rate 200 ppm, Thrips population of mixed ages, 6 days after infestation, read-out: mortality
Method: as §1, with “on” for “onto”, “in” for “in a”, “plates” for “plate”, “drying” for “drying,”, “a Thrips” for “an aphid”

Diabrotica balteata = Diabrotica balteata (corn root worm), sprayed maize sprouts; details: 96 h, application rate 200 ppm, L2 larvae, 4 days after infestation, read-out: effect in at least one of the two categories (mortality or growth inhibition)
Method: as §3, with “Maize sprouts placed onto an agar layer in 24-well” for “24-well”, “plates” for “plates with artificial diet”, “spraying.” for “pipetting.”, “(6” for “(10”, “10” for “15”, “4” for “5”
as §2

Spodoptera littoralis = Spodoptera littoralis (Egyptian cotton leaf worm), sprayed cotton leaf discs; details: foliar, 72 h, application rate 200 ppm, L1 larvae, 3 days after infestation, read-out: control (mortality, anti-feeding effect, growth inhibition)
Method: Cotton leaf discs were placed onto agar in 24-well microtiter plates and sprayed with aqueous test solutions prepared from 10'000 ppm DMSO stock solutions. After drying the leaf discs were infested with five L1 larvae. The samples were assessed for mortality, anti-feeding effect, and growth inhibition in comparison to untreated samples 3 days after infestation. Control of Spodoptera littoralis by a test sample is given when at least one of the categories mortality, anti-feedant effect, and growth inhibition is higher than the untreated sample.

Cc1cc(C2=NO[C@@](c3cc(Cl)c(F)c(Cl)c3)(C(F)(F)F)C2)ccc1C(=O)N[C@H]1CON(S(=O)(=O)N2CCC2)C1 [Compound A148]
≥ 80%: mortality at 200 ppm (Myzus persicae) | mortality at 200 ppm (Tetranychus urticae) | percent effect (mortality or growth inhibition) at 200 ppm (Euschistus heros) | percent effect (mortality or growth inhibition) at 200 ppm (Plutella xylostella) | mortality at 200 ppm (Thrips tabaci) | percent effect (mortality or growth inhibition) at 200 ppm (Diabrotica balteata) | mortality at 200 ppm (Spodoptera littoralis)

Cc1cc(C2=NO[C@@](c3cc(Cl)c(F)c(Cl)c3)(C(F)(F)F)C2)ccc1C(=O)N[C@@H]1CON(S(=O)(=O)N(C)C2(C#N)CC2)C1 [Compound A187]
≥ 80%: mortality at 200 ppm (Myzus persicae) | mortality at 200 ppm (Tetranychus urticae) | percent effect (mortality or growth inhibition) at 200 ppm (Euschistus heros) | percent effect (mortality or growth inhibition) at 200 ppm (Plutella xylostella) | mortality at 200 ppm (Thrips tabaci) | percent effect (mortality or growth inhibition) at 200 ppm (Diabrotica balteata) | mortality at 200 ppm (Spodoptera littoralis)

Cc1cc(C2=NO[C@@](c3cc(Cl)cc(Cl)c3)(C(F)(F)F)C2)ccc1C(=O)N[C@H]1CON(S(=O)(=O)N(C)C2CC2)C1 [Compound A156]
≥ 80%: mortality at 200 ppm (Myzus persicae) | mortality at 200 ppm (Tetranychus urticae) | percent effect (mortality or growth inhibition) at 200 ppm (Euschistus heros) | percent effect (mortality or growth inhibition) at 200 ppm (Plutella xylostella) | mortality at 200 ppm (Thrips tabaci) | percent effect (mortality or growth inhibition) at 200 ppm (Diabrotica balteata) | mortality at 200 ppm (Spodoptera littoralis)

CNS(=O)(=O)N1C[C@@H](NC(=O)c2ccc(C3=NO[C@](c4cc(Cl)c(OC(F)F)c(Cl)c4)(C(F)(F)F)C3)cc2C)CO1 [Compound A207, 4-[(5R)-5-[3,5-dichloro-4-(difluoromethoxy)phenyl]-5-(trifluoromethyl)-4H-1,2-oxazol-3-yl]-2-methyl-N-[(4R)-2-(methylsulfamoyl)-1,2-oxazolidin-4-yl]benzamide]
≥ 80%: mortality at 200 ppm (Myzus persicae) | mortality at 200 ppm (Tetranychus urticae) | percent effect (mortality or growth inhibition) at 200 ppm (Euschistus heros) | percent effect (mortality or growth inhibition) at 200 ppm (Plutella xylostella) | mortality at 200 ppm (Thrips tabaci) | percent effect (mortality or growth inhibition) at 200 ppm (Diabrotica balteata) | mortality at 200 ppm (Spodoptera littoralis)

Cc1cc(C2=NO[C@@](c3cc(Cl)c(F)c(Cl)c3)(C(F)(F)F)C2)ccc1C(=O)N[C@@H]1CON(S(N)(=O)=O)C1 [Compound A208, 4-[(5S)-5-(3,5-dichloro-4-fluorophenyl)-5-(trifluoromethyl)-4H-1,2-oxazol-3-yl]-2-methyl-N-[(4S)-2-sulfamoyl-1,2-oxazolidin-4-yl]benzamide]
≥ 80%: mortality at 200 ppm (Myzus persicae) | mortality at 200 ppm (Tetranychus urticae) | percent effect (mortality or growth inhibition) at 200 ppm (Plutella xylostella) | mortality at 200 ppm (Thrips tabaci) | percent effect (mortality or growth inhibition) at 200 ppm (Diabrotica balteata) | mortality at 200 ppm (Spodoptera littoralis)

Cc1cc(C2=NO[C@](c3cc(Cl)c(F)c(Cl)c3)(C(F)(F)F)C2)ccc1C(=O)N[C@H]1CON(SC(Cl)(Cl)Cl)C1 [Compound A227, 4-[(5R)-5-(3,5-dichloro-4-fluorophenyl)-5-(trifluoromethyl)-4H-1,2-oxazol-3-yl]-2-methyl-N-[(4R)-2-(trichloromethylsulfanyl)-1,2-oxazolidin-4-yl]benzamide]
≥ 80%: mortality at 200 ppm (Tetranychus urticae) | percent effect (mortality or growth inhibition) at 200 ppm (Euschistus heros) | percent effect (mortality or growth inhibition) at 200 ppm (Plutella xylostella) | mortality at 200 ppm (Thrips tabaci) | percent effect (mortality or growth inhibition) at 200 ppm (Diabrotica balteata) | mortality at 200 ppm (Spodoptera littoralis)

Cc1cc(C2=NO[C@@](c3cc(Cl)c(F)c(Cl)c3)(C(F)(F)F)C2)ccc1C(=O)NC1CON(S(=O)(=O)c2ccc(Cl)cc2)C1 (stereo partly drawn) [Compound A2, N-[2-(4-chlorophenyl)sulfonylisoxazolidin-4-yl]-4-[(5S)-5-(3,5-dichloro-4-fluoro-phenyl)-5-(trifluoromethyl)-4H-isoxazol-3-yl]-2-methyl-benzamide]
≥ 80%: mortality at 200 ppm (Tetranychus urticae) | percent effect (mortality or growth inhibition) at 200 ppm (Euschistus heros) | percent effect (mortality or growth inhibition) at 200 ppm (Plutella xylostella) | mortality at 200 ppm (Thrips tabaci) | percent effect (mortality or growth inhibition) at 200 ppm (Diabrotica balteata) | mortality at 200 ppm (Spodoptera littoralis)

Cc1cc(C2=NO[C@@](c3cc(Cl)c(Cl)c(Cl)c3)(C(F)(F)F)C2)ccc1C(=O)NC1CON(S(=O)(=O)C2CC2)C1 (stereo partly drawn) [Compound A29, N-(2-cyclopropylsulfonylisoxazolidin-4-yl)-2-methyl-4-[(5S)-5-(3,4,5-trichlorophenyl)-5-(trifluoromethyl)-4H-isoxazol-3-yl]benzamide]
≥ 80%: mortality at 200 ppm (Myzus persicae) | mortality at 200 ppm (Tetranychus urticae) | percent effect (mortality or growth inhibition) at 200 ppm (Plutella xylostella) | mortality at 200 ppm (Thrips tabaci) | percent effect (mortality or growth inhibition) at 200 ppm (Diabrotica balteata) | mortality at 200 ppm (Spodoptera littoralis)

Cc1cc(C2=NO[C@@](c3cc(Cl)c(Cl)c(Cl)c3)(C(F)(F)F)C2)ccc1C(=O)N[C@H]1CON(S(=O)(=O)CC(F)(F)F)C1 [Compound A221, 2-methyl-4-[(5S)-5-(3,4,5-trichlorophenyl)-5-(trifluoromethyl)-4H-1,2-oxazol-3-yl]-N-[(4R)-2-(2,2,2-trifluoroethylsulfonyl)-1,2-oxazolidin-4-yl]benzamide]
≥ 80%: mortality at 200 ppm (Tetranychus urticae) | percent effect (mortality or growth inhibition) at 200 ppm (Euschistus heros) | percent effect (mortality or growth inhibition) at 200 ppm (Plutella xylostella) | mortality at 200 ppm (Thrips tabaci) | percent effect (mortality or growth inhibition) at 200 ppm (Diabrotica balteata) | mortality at 200 ppm (Spodoptera littoralis)

Cc1cc(C2=NO[C@](c3cc(Cl)c(F)c(Cl)c3)(C(F)(F)F)C2)ccc1C(=O)N[C@H]1CON(S(=O)(=O)CCC(F)(F)F)C1 [Compound A199, 4-[(5R)-5-(3,5-dichloro-4-fluorophenyl)-5-(trifluoromethyl)-4H-1,2-oxazol-3-yl]-2-methyl-N-[(4R)-2-(3,3,3-trifluoropropylsulfonyl)-1,2-oxazolidin-4-yl]benzamide]
≥ 80%: mortality at 200 ppm (Tetranychus urticae) | percent effect (mortality or growth inhibition) at 200 ppm (Euschistus heros) | percent effect (mortality or growth inhibition) at 200 ppm (Plutella xylostella) | mortality at 200 ppm (Thrips tabaci) | percent effect (mortality or growth inhibition) at 200 ppm (Diabrotica balteata) | mortality at 200 ppm (Spodoptera littoralis)

Cc1cc(C2=NO[C@@](c3cc(Cl)c(F)c(Cl)c3)(C(F)(F)F)C2)ccc1C(=O)NC1CON(S(=O)(=O)c2cccs2)C1 (stereo partly shown) [Compound A9]
≥ 80%: mortality at 200 ppm (Tetranychus urticae) | percent effect (mortality or growth inhibition) at 200 ppm (Euschistus heros) | percent effect (mortality or growth inhibition) at 200 ppm (Plutella xylostella) | mortality at 200 ppm (Thrips tabaci) | percent effect (mortality or growth inhibition) at 200 ppm (Diabrotica balteata) | mortality at 200 ppm (Spodoptera littoralis)

Cc1cc(C2=NO[C@@](c3cc(Cl)cc(Cl)c3)(C(F)(F)F)C2)ccc1C(=O)N[C@@H]1CON(S(=O)(=O)CC(=O)N(C)C)C1 [Compound A202, 4-[(5S)-5-(3,5-dichlorophenyl)-5-(trifluoromethyl)-4H-1,2-oxazol-3-yl]-N-[(4S)-2-[2-(dimethylamino)-2-oxoethyl]sulfonyl-1,2-oxazolidin-4-yl]-2-methylbenzamide]
≥ 80%: mortality at 200 ppm (Tetranychus urticae) | percent effect (mortality or growth inhibition) at 200 ppm (Euschistus heros) | percent effect (mortality or growth inhibition) at 200 ppm (Plutella xylostella) | mortality at 200 ppm (Thrips tabaci) | percent effect (mortality or growth inhibition) at 200 ppm (Diabrotica balteata) | mortality at 200 ppm (Spodoptera littoralis)

Cc1cc(C2=NO[C@@](c3cc(Cl)cc(Cl)c3)(C(F)(F)F)C2)ccc1C(=O)N[C@@H]1CON(S(=O)(=O)NCC(F)(F)F)C1 [Compound A194]
≥ 80%: mortality at 200 ppm (Tetranychus urticae) | percent effect (mortality or growth inhibition) at 200 ppm (Euschistus heros) | percent effect (mortality or growth inhibition) at 200 ppm (Plutella xylostella) | mortality at 200 ppm (Thrips tabaci) | percent effect (mortality or growth inhibition) at 200 ppm (Diabrotica balteata) | mortality at 200 ppm (Spodoptera littoralis)

CS(=O)(=O)N1CC(NC(=O)c2ccc(C3=NOC(c4cc(Cl)cc(Cl)c4)(C(F)(F)F)C3)cc2Cl)CO1 (stereo not shown) [Compound A49]
≥ 80%: mortality at 200 ppm (Tetranychus urticae) | percent effect (mortality or growth inhibition) at 200 ppm (Euschistus heros) | percent effect (mortality or growth inhibition) at 200 ppm (Plutella xylostella) | mortality at 200 ppm (Thrips tabaci) | percent effect (mortality or growth inhibition) at 200 ppm (Diabrotica balteata) | mortality at 200 ppm (Spodoptera littoralis)
